Test results as given in US20170168056A1, “METHODS AND COMPOSITIONS FOR DETECTING AND MODULATING CANCER CELLS” (Massachusetts Institute of Technology, priority 2015, published 2017).
Where a chain is given by its changes, count along the chain named.

Tests used:
[1] = system: MDA-MB-231 cells; test: Cell viability assay (Prestoblue) in MDA-MB-231 cells expressing GFP, GFP-Mena or GFP-Mena^INV; conditions: 72 h; for effect of Mena or Mena^INV expression on fraction of viable cells / response to drug: range of concentrations
Protocol: Cell viability assays were performed in a 96-well plate. 5,000 cells were plated per well and treated with drug 24 hours later. Cell viability was assayed 72 hours later using the PrestoBlue Cell Viability Reagent (Life Technologies), according to manufacturer's protocol. Fluorescence was measured and normalized to cells exposed to vehicle. The activity area was calculated from doseresponse plots using Matlab. All measurements were repeated in triplicate.

[2] = system: MDA-MB-231 xenograft tumors; test: Xenograft tumor growth in NOD-SCID mice with chemotherapy treatment; type: in vivo, mouse; conditions: three doses Taxol/paclitaxel 10 mg/kg or two doses Doxorubicin 5 mg/kg
Protocol: Mena or Mena^INV expression blocks Taxol efficacy on tumors in treated animals. Mice with xenograft tumors were generated by injection of MDA-MB-231 cells expressing GFP (Control), GFP-Mena (Mena) or GFP-Mena^INV (Mena^INV) into the mammary fat pads of NOD-SCID mice. […] Tumor size was measured before and after treatment. […] These in vivo findings are consistent with the results obtained in the in vitro data, and indicate that Men/Mena^INV promotes resistance to Taxol as judged by tumor growth.
Xenograft tumor generation and in vivo chemotherapy treatment. All animal experiments were approved by the MIT Division of Comparative Medicine. 2 million MDA-MB-231 cells expressing different MENA isoforms (in PBS and 20% collagen I) were injected into the 4th right mammary fat pad of six week-old female NOD-SCID mice (Taconic). When the tumors reached 1 cm in diameter, mice were treated every five days with either three doses of paclitaxel at 10 mg/kg in 1% DMSO, 3% PEG (MW 400), 1% Tween 80 in PBS by intra-peritoneal injection. In parallel, mice were treated with only in 1% DMSO, 3% PEG (MW 400), 1% Tween 80 in PBS as a vehicle control. One day after the last injection, tumors were measured and mice were use for intravital imaging and then sacrificed. Their tumors and lungs were fixed in 10% formalin overnight, their bone marrow were collected using PBS and cultured in DMEM with 10% fetal bovine serum. The number of tumor cell colonies in cultured bone morrow was counted 1 month after collection. The number of metastasis in each lobe of the lung were counted from lung H&E stained sections visualized by light microscopy and counted by two blinded individuals. Each tumor group contained 3-5 mice.
MENA isoform expression is associated with increased tumor growth in vivo during paclitaxel treatment. Whether MENA-associated paclitaxel resistance could also be observed in vivo was examined. Xenograft tumors were generated by injecting MDA-MB-231 cells expressing MENA isoforms into the mammary fat pads of NOD-SCID mice. Mice were treated with paclitaxel once tumors reached 1 cm in diameter (FIG. 30A).

[3] = system: MDA-MB-231 cells; test: Proliferation assay (cell count) with combinations of paclitaxel and MEKi; type: cell-based, human
[4] = system: microtubules (MT); test: Immunofluorescence ratio of Glu-MT (stable) to Tyr-MT (dynamic); type: cell-based, human; conditions: 231-MENA^INV cells, 24 hours
Protocol: Immunofluorescence. Glass bottom dishes (Mattek) were coated with Collagen at 0.1 mg/mL diluted in PBS and 50 μg/mL FN for 1 hour at 37° C. Cells were plated for 1 hour, and then treated with paclitaxel alone or in combination with MEKi for 24 hours. Cells were fixed for 20 minutes in 4% paraformaldehyde in PHEM buffer with 0.1% Gluteraldehyde, and then quenched with sodium borohydrate for 5 minutes. Cells were blocked with 2% BSA in TBS-0.1%TritonX-100 for 30 minutes, and incubated with primary antibodies and then secondary antibodies for 1 hour each, at room temperature. Z series of images were taken on an Applied Precision DeltaVision microscope using Softworx acquisition, an Olympus 60×1.4 NA plan apo objective and a Photometrics CoolSNAP HQ camera. Images were deconvolved using Deltavision Softworx software and objective specific point spread function. Images were analyzed with ImageJ, where the whole cell intensity levels of Tyr- or Glu-MT was measured. Images are pooled from at least 3 independent experiments.
Paclitaxel promotes cell death by increasing the stability of MTs, and pathways driving increased MT dynamics are known to promote resistance to taxanes. Therefore, MT structure and dynamics in MENA isoform expressing cells was examined during paclitaxel treatment. […] Post-translational modification of MTs can regulate their dynamics, and antibodies that detect such modifications can be used to infer the relative dynamics of MT populations; in particular, MT tyrosination indicates a dynamic MT state, while de-tyrosination of MTs is associated with increased stability. The relative abundance of stable (Glu-MT) vs. dynamic (Tyr-MT) MTs was measured in individual cells by immunofluorescence with anti-Glu-MT and anti-Tyr-MT antibodies (FIGS. 37A, 37B).
(§1) The MAPK signaling cascade is among the key pathways known to interact with MTs. Both ERK1/2 interact with MTs; MT stabilization by paclitaxel increases ERK phosphorylation and, in turn, ERK pathway activation increases MT dynamics.

[5] = system: ERK, Akt; test: Western blot for pERK Y204, ERK, pAkt473 and Akt; type: cell-based, human; conditions: 231-MENA^INV cells; 10 nM paclitaxel, 0.1 μM MEKi, 72 hours
Protocol: (§2) Western blot. Cells were lysed in 25 mM Tris, 150 mM NaCl, 10% glycerol, 1% NP 40 and […] EDTA with a protease Mini-complete protease inhibitors (Roche) and a phosphatase inhibitor cocktail (PhosSTOP, Roche) at 4° C. for 20 minutes. Protein lysates were separated by SDS-PAGE, transferred to a nitrocellulose membrane and blocked with Odyssey Blocking Buffer (LiCor). Membranes were incubated with primary antibody overnight at 4° C. and Licor secondary antibodies at room temperature for 1 hour. Protein level intensity was measured with Image J.
as §1

[6] = system: Mena; test: Mena expression in cultured cells after taxane treatment (Western blot, FACS of GFP); type: cell-based, human; conditions: MDA-MB-231 populations expressing GFP, GFP-MENA or GFP-MENA^INV
Protocol: Taxol treatment induces increased Mena protein expression in vitro and in vivo. As high level of Mena or Mena^INV expression correlated with low response to Taxo, we hypothesized that Taxol treatment might affect Mena expression. […]. After 72 h of treatment with the drug, the expression level of Mena was 70% higher than in vehicle-treated cells.
as §2
Paclitaxel treatment selects for high MENA expression in vitro and in vivo. The Examples so far indicate that increased MENA or MENA^INV expression levels are associated with reduced responses to paclitaxel. The effect of paclitaxel treatment on levels of MENA expression in cell populations in vitro and in vivo was examined. First, endogenous MENA expression by Western Blot in 5 breast cancer cell lines that were exposed to 100 nM of paclitaxel or a vehicle control were analyzed (FIG. 33A).

[7] = system: SKBr3 cells; test: Wound closure assay, SKBr3 cells with Mena^11a-specific shRNA; type: cell-based, human; conditions: twenty-four hours
Protocol: (§3) The Mena^11a knockdown procedure employed shRNAs was based on 97-mer oligos (Invitrogen) comprising the shRNAs amplified by PCR with primers having EcoRI/XhoI sites, and were cloned into the pMSCV-miR30-MLS-GFP vector (gift from Michael Hemann, Koch Institute, MIT). Oligo sequences are:
(§4) Mena^11a-specific depletion enhances cell migration and membrane protrusion. Previously, the effects of Mena^11a on cancer cell motility were evaluated in assays utilizing ectopic expression. To study the role of endogenously expressed Mena^11a on cancer cell motility, we used Mena^11a-KD cells, including T47D and SKBr3 human breast cancer cells which have >80% reduction of Mena^11a protein levels (FIG. 15A-B, 15E-F), in wound closure assays. […] T47D cells yielded similar results (FIG. 15C-D), although complete closure of the control T47D cells took longer than with SKBr3 cells. […] Therefore, depletion of the Mena^11a isoform from cells that normally express both Mena and Mena^11a increased cell migration rates.

[8] = system: T47D cells; test: Wound closure assay and morphology (circularity), T47D cells with Mena^11a-specific shRNA; type: cell-based, human; conditions: for percent of cell free region filled (gap closure): 48 hours; for circularity of cells at the free edge of the monolayer: perfect circularity=1
Text: as §3
Signal intensities from antibodies or rhodamine-labeled barbed ends along the cell edge were quantified with a contour-based ImageJ macro. We measured the distribution of signal along the membrane plotted as a function of distance from the cell edge (mean±SEM) and the sum of the intensities in the first 0.65 μm from the cell edge. Circularity measures were performed by manually tracing the cells at the free edge of the epithelial monolayer, and by using the circularity plugin built in ImageJ. In this analysis, a circularity value of 1 indicates a perfect circle while, as the value approaches 0, it indicates an elongated cell shape. For quantitative imaging, we used the same hardware configuration and exposure time for all cell lines analyzed in the same experiment. […] Extracted pixel intensities were exported to Microsoft Excel for analysis and Graph-Pad Prism for graphing.
as §4
Consistent with changes in migration, we observed that the morphology of T47D Mena^11a-KD cells differed from control-KD cells, specifically at the free edge of the monolayer (FIG. 151).

## N.N.[Cl][Pt][Cl] [Cisplatin]
[1]
  effect of Mena or Mena^INV expression on fraction of viable cells / response to drug: neither GFP-Mena nor GFP-MenaINV expression affected the fraction of viable MDA-MB-231 cells differently than the GFP controls
[1]; listed as cisplatin
  effect of Mena or Mena^INV expression on fraction of viable cells / response to drug: neither MENA nor MENA^INV expression affected the response

## COc1cccc2c1C(=O)c1c(O)c3c(c(O)c1C2=O)C[C@@](O)(C(=O)CO)C[C@@H]3O[C@H]1C[C@H](N)[C@H](O)[C@H](C)O1 [Doxorubicin]
[1]
  effect of Mena or Mena^INV expression on fraction of viable cells / response to drug: neither MENA nor MENA^INV expression affected the response
[2]; GFP (Control) tumors
  growth of control tumors compared to vehicle: significantly decreased growth of control tumors
[2]; Mena or Mena^INV expressing tumors
  growth / response of Mena or Mena^INV tumors: decreased response

## COc1cc2c(cc1OC)CN(CCc1ccc(-n3nnc(-c4cc(OC)c(OC)cc4NC(=O)c4cc(=O)c5ccccc5o4)n3)cc1)CC2 [HM30181]
[1]; 231-Control cells, HM30181 100 nM
  fraction of viable cells on co-treatment with 100 nM paclitaxel: negligibly affected
[1]; 231-MENA^INV cells, 100 nM paclitaxel
  paclitaxel efficacy on co-treatment with MDR1 inhibitor: did not increase paclitaxel efficacy

## O=C(NOC[C@H](O)CO)c1ccc(F)c(F)c1Nc1ccc(I)cc1F [PD0325901]
[3]; 231-MENA and 231-MENA^INV cells
  concentrations needed to obtain high levels of cell death relative to 231-Control cells: higher concentrations of each drug were needed
[3]; all cell lines, 72 hours, both drugs simultaneously
  combination of paclitaxel and MEKi in proliferation assay (cell death): significant additive effects
[4]; paclitaxel plus MEKi
  stable MTs relative to dynamic MTs, both drugs simultaneously: induced increases in stable MTs relative to dynamic MTs
[4]; single drug
  stable MTs relative to dynamic MTs, either drug alone: had no effect
[5]
  paclitaxel-induced ERK phosphorylation: blocked

## CC(=O)O[C@@]12CO[C@@H]1C[C@H](O)[C@@]1(C)C(=O)[C@H](O)C3=C(C)[C@@H](OC(=O)[C@H](O)[C@@H](NC(=O)OC(C)(C)C)c4ccccc4)C[C@@](O)([C@@H](OC(=O)c4ccccc4)[C@H]21)C3(C)C [docetaxel]
[6]
  FACS analysis of GFP expression levels after taxane treatment: selected for cells expressing higher levels of GFP-MENA or GFP-MENA^INV, but not of GFP

B1: sh-1C: paired control shRNA for sh-1, SEQ ID NO. 7 (nucleic acid)
guide: TGCTGTTGACAGTGAGCGAATGATTCCTTAAACAGCCCAATAGTGAAGCCACAGATGTATTGGGCTGTTTAAGGAATCATGTGCCTACTGCCTCGGA
[7]
  percent of initially cell-free region filled (gap closure): 49.03% ±4.2
[8]
  percent of cell free region filled (gap closure): 50.41% ±3.7
  circularity of cells at the free edge of the monolayer: 0.683

B2: sh-2C: paired control shRNA for sh-2, SEQ ID NO. 9 (nucleic acid)
guide: TGCTGTTGACAGTGAGCGAAACAGGTCATAGGATTAATTATAGTGAAGCCACAGATGTATAATTAATCCTATGACCTGTTCTGCCTACTGCCTCGGA
[7]
  percent of initially cell-free region filled (gap closure): 55.24% ±1.8
[8]
  percent of cell free region filled (gap closure): 40.38% ±4.2
  circularity of cells at the free edge of the monolayer: 0.640

B3: sh-1: shRNA targeting the 11a insertion of Mena^11a, SEQ ID NO. 6 (nucleic acid)
guide: B1 guide with A19C, C27A, A31C, C36A, G64T, T69G, G73T, G81A
[7]
  percent of initially cell-free region filled (gap closure): 74.76% ±4.8
[8]
  percent of cell free region filled (gap closure): 78.39% ±4.8
  circularity of cells at the free edge of the monolayer: 0.614

B4: sh-2: shRNA targeting the 11a insertion of Mena^11a, SEQ ID NO. 8 (nucleic acid)
guide: B2 guide with A19C, A28C, G31T, A36C, T64G, C69A, T72G, C81A
[7]
  percent of initially cell-free region filled (gap closure): 77.84% ±3.6
[8]
  percent of cell free region filled (gap closure): 70.20% ±8.8
  circularity of cells at the free edge of the monolayer: 0.509
